# Data taken from patent US9498546B2, “Synthesis and application of novel imaging agents conjugated to DPA 713 analogs for imaging inflammation” (THE JOHNS HOPKINS UNIVERSITY, priority 2012, dated 2016).
# “Also recorded” adds a separate entry of the source.
# How the values were obtained:
# [1] = system: CD68+ macrophages in MDA-MB-231 xenografts; assay: Ex vivo fluorescence microscopy of MDA-MB-231 xenografts; type: in vivo, mice; details: 24 hours post-injection
# Protocol: FIG. 6 is a series of photomicrographs of ex vivo fluorescence microscopy of DPA-713-IRDye680LT in MDA-MB-231 xenografts at 24 hours post-injection.
# Ex vivo DPA-713-IRDye680LT microscopy. The mice used in the in vivo NIRF studies (PC-3 analog xenografts and MDA-MB-231 analog xenografts) were sacrificed at the end of their studies and their tumors were collected and frozen on dry ice for cryosectioning to 20 microns on charged glass slides (VWR). The sections were then probed with both anti-TSPO Ab (Novus Biologicals NBP1-45769, 1:70) labeled directly with Lissamine sulfonyl chloride (Aldrich) according to the known method and anti-CD68 Ab (Abcam ab53444, 1:40) and lastly with Hoechst 33342 (Invitrogen, 1 ng/mL). Both antibodies were added simultaneously in a 10% FBS in PBS solution applied directly to the freshly thawed sections and allowed to sit at room temperature for 1 hour. The sections were washed twice at room temperature for 5 minutes each with PBS prior to the addition of sheep-anti-rat-FITC (Abcam ab6848-1, 1:250) in PBS at room temperature for 30 minutes. The secondary antibody solution was removed and the slides were bathed in Hoechst solution (PBS) for 1.5 minutes at room temperature before being washed twice as before with PBS. […] All images are recorded and processed using Nikon Imaging Software Elements. […]
# [2] = system: LPS-stimulated J774 macrophages (TSPO); assay: In vitro J774 murine macrophage uptake studies (fluorescence microscopy, with or without blocking); type: cell-based
# Protocol: FIG. 4 is a series of photomicrographs (A-I) of J774 macrophages that were cultured in 8 well chamber slides to 80% confluence. LPS was then added to each well for 24 hours to stimulate the cells. […] The cells were returned to the incubator for either 1 hour or 24 hours. The solutions were then removed, the nuclei were labeled with Hoechst 33342 and the cells were briefly washed before mounting and viewing under a fluorescence microscope.
# In vitro J774 murine macrophage uptake studies. The immortalized J774 murine macrophage-like cell line was cultured in RPMI1640+20% FBS+1% penicillin+ streptomycin media in 8-well chamber slides (Fisher Scientific) to approximately 80% confluence. The cells were then stimulated with 1 ng/mL of LPS (Sigma, E. coli 055:B5) for 24 hours prior to addition of the probes of the present invention to 40 nM final concentration. […] The cells were exposed to the fluorescent probes and blocking compounds for either 1 hour or 24 hours prior to exposing to 1 ng/mL of Hoechst 33342 dye (Invitrogen), followed by washing twice briefly with PBS, pH 7.5. The chambers were then removed and the slide mounted with Dako Cytomation aqueous mounting media and a glass coverslip. The cells were visualized using a Nikon 80i upright epifluorescence microscope equipped with a Nikon DS-QilMc darkfield CCD camera and processed using Nikon Image Software on an adjacent workstation. The dyes were excited using either a Nikon Intensilight C-HGFI lamp (IRDye680 and Hoechst) or a Sutter Instruments Co. (Novato, Calif.) LB/LB-30 xenon lamp (IRDye800).
# J774 Cell Uptake Studies. J774 macrophages were cultured in 8 well chamber slides to 80% confluence. LPS was then added to each well for 24 hours to stimulate the cells. […] The cells were returned to the incubator for either 1 hour or 24 hours. The solutions were then removed, the nuclei were labeled with Hoechst 33342 and the cells were briefly washed before mounting and viewing under a fluorescence microscope. […] The tracer localization for both analogs is perinuclear and granular in appearance and is consistent with the gross distribution pattern of TSPO expression in other mononuclear cell-derived lines.
# [3] = system: CD68+ macrophages in PC-3 PIP and PC-3 flu xenografts; assay: Ex vivo fluorescence microscopy of PC-3 PIP and PC-3 flu xenografts; type: in vivo, mice
# Protocol: FIG. 8 is a series of photomicrographs showing ex vivo fluorescence microscopy of DPA-713-IRDye680LT in PC-3 PIP and PC-3 flu xenografts at 24 hours post-injection. […] A & B. PIP tumor DPA-713-IRDye680LT only; C.
# Ex vivo DPA-713-IRDye680LT microscopy. The mice used in the in vivo NIRF studies (PC-3 analog xenografts and MDA-MB-231 analog xenografts) were sacrificed at the end of their studies and their tumors were collected and frozen on dry ice for cryosectioning to 20 microns on charged glass slides (VWR). The sections were then probed with both anti-TSPO Ab (Novus Biologicals NBP1-45769, 1:70) labeled directly with Lissamine sulfonyl chloride (Aldrich) according to the known method and anti-CD68 Ab (Abcam ab53444, 1:40) and lastly with Hoechst 33342 (Invitrogen, 1 ng/mL). Both antibodies were added simultaneously in a 10% FBS in PBS solution applied directly to the freshly thawed sections and allowed to sit at room temperature for 1 hour. The sections were washed twice at room temperature for 5 minutes each with PBS prior to the addition of sheep-anti-rat-FITC (Abcam ab6848-1, 1:250) in PBS at room temperature for 30 minutes. The secondary antibody solution was removed and the slides were bathed in Hoechst solution (PBS) for 1.5 minutes at room temperature before being washed twice as before with PBS. The slides were then mounted in Dako Cytomation aqueous mounting media with a glass coverslip and viewed 30 minutes later using a Nikon 80i upright epifluorescence microscope equipped with a Nikon DS-QilMc darkfield CCD camera and excited by a Nikon Intensilight C-HGFI lamp. All images are recorded and processed using Nikon Imaging Software Elements.
# FIG. 9 depicts a series of NIRF image showing in vivo, ex vivo and in vitro binding of DPA-713-IRDye800CW to androgen sensitive (TSPO−) LNCaP (9E), androgen insensitive (TSPO+) PC-3 prostate xenografts and TSPO+ subcutaneous and orthotopic U87 GBM xenografts.
smiles,measurement,setting,value
"CCN(CC)C(=O)Cc1c(-c2ccc(OCCNC(=O)CCCCc3cccc(C(=C\C=C4/N(CCCS(=O)(=O)O)c5ccc6c(S(=O)(=O)O)cc(S(=O)(=O)O)cc6c5C4(C)C)/C=C/C4=[N+](CCCS(=O)(=O)[O-])c5ccc6c(S(=O)(=O)O)cc(S(=O)(=O)O)cc6c5C4(C)C)c3)cc2)nn2c(C)cc(C)nc12 [DPA-713-IRDye680LT, 3-(2-((1E,3Z,5Z)-3-(3-(5-(2-(4-(3-(2-(diethylamino)-2-oxoethyl)-5,7-dimethylpyrazolo[1,5-a]pyrimidin-2-yl)phenoxy)ethylamino)-5-oxopentyl)phenyl)-5-(1,1-dimethyl-6,8-disulfo-3-(3-sulfopropyl)-1Hbenzo[e]indol-2(3H)-ylidene)penta-1,3-dienyl)-1,1-dimethyl-6,8-disulfo-1H-benzo[e]indolium-3-yl)propane-1-sulfonate]",Cell-specific localization of probe in xenograft sections,[1],selectively retained by CD68-expressing macrophages; also recorded: sequestered within CD68+ macrophages
same,"Blocking of tracer uptake by (R,S)-PK11195","[2]; 40 nM tracer + 1 μM (R,S)-PK11195, 24 hours",no longer blocked
same,"Blocking of tracer uptake by (R,S)-PK11195","[2]; 40 nM tracer + 1 μM unlabeled (R,S)-PK11195, 1 hour",widespread although incomplete blocking
same,Blocking of tracer uptake by unlabeled DPA-713,"[2]; 40 nM tracer + 1 μM unlabeled DPA-713, 1 hour",partial but incomplete blocking
same,Cell-specific accumulation of probe in prostate tumor xenografts,[3]; 24 hours of in vivo biodistribution,accumulated specifically within CD68+ macrophages
same,"Probe accumulation, PC-3 PIP compared with PC-3 flu xenografts",[3]; 24 hours post-injection,PC-3 PIPs accumulate more
same,Blocking of probe accumulation by unlabeled DPA-713,"[3]; co-injection with 20 mg/kg unlabeled DPA-713, 24 hours post-injection",accumulation is blocked
